Measurements taken from patent US10335409B2 (priority 2012, dated 2019).
pEC50: −log10 of the molar value.

How the values were obtained:
Format in all cases: cell-based, hepatitis C virus
[1] = tested on: genotype 3a (S52) wild type transient HCV replicon in Huh-7-derived cells; experiment: Transient-transfected HCV replicon EC50, genotype 3a wild type; conditions: Hepatitis C virus; transient-transfected replicon genotype 3a wild type, 72 h; read-out: EC50 3A WT
[2] = tested on: genotype 4a (ED43) stable HCV replicon in Huh-7-derived cells; experiment: Stable subgenomic HCV replicon EC50, genotype 4a (Renilla luciferase); conditions: Hepatitis C virus, 72 h, read-out: EC50 4A RLUC
How it was run: (§1)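 Compounds, three-fold diluted, were applied to Huh-7-derived cells harbouring luciferase replicons (genotype 1a H77, 1b Con1, 2a JFH-1, 4a ED43, with strain-specific adaptive mutations). Seventy-two hours later, intracellular replication was gauged by Renilla luciferase activity and EC50 derived by regression.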

[3] = tested on: genotype 1a (H77) wild type transient HCV replicon in Huh-7-derived cells; experiment: Transient-transfected HCV replicon EC50, genotype 1a wild type; conditions: Hepatitis C virus, 72 h, transient-transfected replicon genotype 1a wild type, read-out: EC50 1A WT
[4] = tested on: genotype 1a NS3/4a protease inhibitor resistant variant R155K transient HCV replicon in Huh-7-derived cells; experiment: Transient-transfected HCV replicon EC50, genotype 1a R155K; conditions: Hepatitis C virus, 72 h, read-out: EC50 1A R155K, transient-transfected replicon genotype 1a R155K resistant variant, 72 h
[5] = tested on: genotype 1b (Con1) wild type transient HCV replicon in Huh-7-derived cells; experiment: Transient-transfected HCV replicon EC50, genotype 1b wild type; conditions: Hepatitis C virus, 72 h, transient-transfected replicon genotype 1b wild type, read-out: EC50 1B WT
[6] = tested on: genotype 3a (S52) stable HCV replicon in Huh-7-derived cells; experiment: Stable subgenomic HCV replicon EC50, genotype 3a (Renilla luciferase); conditions: Hepatitis C virus, 72 h, read-out: EC50 3A RLUC
[7] = tested on: genotype 1a (H77) stable HCV replicon in Huh-7-derived cells; experiment: Stable subgenomic HCV replicon EC50, genotype 1a (Renilla luciferase); conditions: Hepatitis C virus, stable replicon genotype 1a, 72 h, read-out: EC50 1A RLUC
How it was run: as §1

[8] = tested on: genotype 1b NS3/4a protease inhibitor resistant variant D168A transient HCV replicon in Huh-7-derived cells; experiment: Transient-transfected HCV replicon EC50, genotype 1b D168A; conditions: Hepatitis C virus, 72 h, read-out: EC50 1B D168A, transient-transfected replicon genotype 1b D168A resistant variant, 72 h
[9] = tested on: genotype 1b (Con1) stable HCV replicon in Huh-7-derived cells; experiment: Stable subgenomic HCV replicon EC50, genotype 1b (Renilla luciferase); conditions: Hepatitis C virus, stable replicon genotype 1b, 72 h, read-out: EC50 1B RLUC
How it was run: as §1

[10] = tested on: genotype 2a (JFH-1) stable HCV replicon in Huh-7-derived cells; experiment: Stable subgenomic HCV replicon EC50, genotype 2a (Renilla luciferase); conditions: Hepatitis C virus, stable replicon genotype 2a, 72 h, read-out: EC50 2A RLUC
How it was run: as §1

Work on `COc1ccc2nc3c(nc2c1)O[C@H]1CN(C(=O)[C@H](C(C)(C)C)NC(=O)O[C@@]2(C)C[C@@H]2CCCCC3(F)F)[C@H](C(=O)N[C@]2(C(=O)NS(=O)(=O)C3(C)CC3)C[C@H]2C(F)F)[C@@H]1C` [Example 77, (1 aS,5S,8S,9S,10R,22aS)-5-tert-butyl-N-[(1R,2R)-2-(difluoromethyl)-1-{[(1-methylcyclopropyl)sulfonyl]carbamoyl}cyclopropyl]-18,18-difluoro-14-methoxy-1a,9-dimethyl-3,6-dioxo-1,1a,3,4,5,6,9,10,18,19,20,21,22,22a-tetradecahydro-8H-7,10-methanocyclopropa[18,19][1,10,3,6]dioxadiazacyclononadecino[11,12-b]quinoxaline-8-carboxamide] yielded a pEC50 [1] of 6.33, a pEC50 [2] of 7.80 and a pEC50 [3] of 7.68. It also gave a pEC50 [4] of 7.47, a pEC50 [5] of 8.30 and a pEC50 [6] of 6.13. The pEC50 [7] was 7.64, the pEC50 [8] was 7.10 and the pEC50 [9] was 7.92. For the same compound, the pEC50 [10] was 7.54.
Work on `CC[C@@H]1[C@@H]2CN(C(=O)[C@H](C(C)(C)C)NC(=O)O[C@@H]3C[C@H]3CC/C=C/C(F)(F)c3nc4ccc(C#N)cc4nc3O2)[C@@H]1C(=O)N[C@]1(C(=O)NS(=O)(=O)C2(C)CC2)C[C@H]1C(F)F` [Example 84, (1aR,5S,8S,9S,10R,19E,22aR)-5-tert-butyl-14-cyano-N-[(1R,2R)-2-(difluoromethyl)-1-{[(1-methylcyclopropyl)sulfonyl]carbamoyl}cyclopropyl]-9-ethyl-18,18-difluoro-3,6-dioxo-1,1a,3,4,5,6,9,10,18,21,22,22a-dodecahydro-8H-7,10-methanocyclopropa[18,19][1,10,3,6]dioxadiazacyclononadecino[11,12-b]quinoxaline-8-carboxamide] yielded a pEC50 [1] of 7.96, a pEC50 [2] of 8.19 and a pEC50 [3] of 8.27. It also gave a pEC50 [4] of 8.40, a pEC50 [5] of 8.60 and a pEC50 [6] of 7.57. It also gave a pEC50 [7] of 8.23, a pEC50 [8] of 8.28 and a pEC50 [9] of 8.24. For the same compound, the pEC50 [10] was 8.14.
In the case of `CC[C@@H]1[C@@H]2CN(C(=O)[C@H](C(C)(C)C)NC(=O)O[C@@H]3C[C@H]3CCCCC(F)(F)c3nc4ccc(OC)cc4nc3O2)[C@@H]1C(=O)N[C@]1(C(=O)NS(=O)(=O)C2(C)CC2)C[C@H]1CC(F)F` [Example 35, (1aR,5S,8S,9S,10R,22aR)-5-tert-butyl-N-[(1R,2S)-2-(2,2-difluoroethyl)-1-{[(1-methylcyclopropyl)sulfonyl]carbamoyl}cyclopropyl]-9-ethyl-18,18-difluoro-14-methoxy-3,6-dioxo-1,1a,3,4,5,6,9,10,18,19,20,21,22,22a-tetradecahydro-8H-7,10-methanocyclopropa[18,19][1,10,3,6]dioxadiazacyclononadecino[11,12-b]quinoxaline-8-carboxamide], the pEC50 [1] was 7.46, the pEC50 [2] was 8.12 and the pEC50 [3] was 7.92. It also gave a pEC50 [4] of 7.77, a pEC50 [5] of 8.00 and a pEC50 [6] of 6.79. The pEC50 [7] was 8.04, the pEC50 [8] was 7.42 and the pEC50 [9] was 7.96. For the same compound, the pEC50 [10] was 8.13.
With `CC[C@@H]1[C@@H]2CN(C(=O)[C@H](C(C)(C)C)NC(=O)O[C@@H]3C[C@H]3CCCCCc3nc4ccc(OC)cc4nc3O2)[C@@H]1C(=O)N[C@]1(C(=O)NS(=O)(=O)C2(Cl)CC2)C[C@H]1C(F)F` [Example 75, (1aR,5S,8S,9S,10R,22aR)-5-tert-butyl-N-[(1R,2R)-1-{[(1-chlorocyclopropyl)sulfonyl]carbamoyl}-2-(difluoromethyl)cyclopropyl]-9-ethyl-14-methoxy-3,6-dioxo-1,1a,3,4,5,6,9,10,18,19,20,21,22,22a-tetradecahydro-8H-7,10-methanocyclopropa[18,19][1,10,3,6]dioxadiazacyclononadecino[11,12-b]quinoxaline-8-carboxamide] the pEC50 [1] was 7.25, the pEC50 [2] was 8.00 and the pEC50 [3] was 7.85. For the same compound, the pEC50 [4] was 7.35, the pEC50 [5] was 8.46 and the pEC50 [6] was 6.62. It also gave a pEC50 [7] of 8.00, a pEC50 [8] of 7.29 and a pEC50 [9] of 8.19. The pEC50 [10] was 7.74.
`CC[C@@H]1[C@@H]2CN(C(=O)[C@H](C(C)(C)C)NC(=O)O[C@@H]3C[C@H]3CCCCC(F)(F)c3nc4ccccc4nc3O2)[C@@H]1C(=O)N[C@]1(C(=O)NS(=O)(=O)C2CC2)C[C@H]1C(F)F` [Example 53, (1aR,5S,8S,9S,10R,22aR)-5-tert-butyl-N-[(1R,2R)-1-[(cyclopropylsulfonyl)carbamoyl]-2-(difluoromethyl)cyclopropyl]-9-ethyl-18,18-difluoro-3,6-dioxo-1,1a,3,4,5,6,9,10,18,19,20,21,22,22a-tetradecahydro-8H-7,10-methanocyclopropa[18,19][1,10,3,6]dioxadiazacyclononadecino[11,12-b]quinoxaline-8-carboxamide] gave a pEC50 [1] of 7.82, a pEC50 [2] of 8.55 and a pEC50 [3] of 8.28. For the same compound, the pEC50 [4] was 8.25, the pEC50 [5] was 8.70 and the pEC50 [6] was 7.74. For the same compound, the pEC50 [7] was 7.29, the pEC50 [8] was 7.96 and the pEC50 [9] was 8.11. The pEC50 [10] was 7.89.
Work on `CC[C@@H]1[C@@H]2CN(C(=O)[C@H](C(C)(C)C)NC(=O)O[C@@H]3C[C@H]3CCCCCc3nc4ccc(OC)cc4nc3O2)[C@@H]1C(=O)N[C@]1(C(=O)NS(=O)(=O)C2(C)CC2)C[C@H]1CC(F)F` [Example 67, (1aR,5S,8S,9S,10R,22aR)-5-tert-butyl-N-[(1R,2S)-2-(2,2-difluoroethyl)-1-{[(1-methylcyclopropyl)sulfonyl]carbamoyl}cyclopropyl]-9-ethyl-14-methoxy-3,6-dioxo-1,1a,3,4,5,6,9,10,18,19,20,21,22,22a-tetradecahydro-8H-7,10-methanocyclopropa[18,19][1,10,3,6]dioxadiazacyclononadecino[11,12-b]quinoxaline-8-carboxamide] yielded a pEC50 [1] of 6.97, a pEC50 [2] of 7.92 and a pEC50 [3] of 7.85. It also gave a pEC50 [4] of 7.38, a pEC50 [5] of 8.00 and a pEC50 [6] of 6.42. It also gave a pEC50 [7] of 7.96, a pEC50 [8] of 7.07 and a pEC50 [9] of 7.92. The pEC50 [10] was 7.62.
For `CC[C@@H]1[C@@H]2CN(C(=O)[C@H](C(C)(C)C)NC(=O)O[C@@H]3[C@H]4CC[C@H](C4)[C@H]3CCCCCc3nc4ccc(OC)cc4nc3O2)[C@@H]1C(=O)N[C@]1(C(=O)NS(=O)(=O)C2(C)CC2)C[C@H]1C(F)F` [Example 37, (1R,4S,4aR,8S,11 S, 12S,13R,25aR)-8-tert-butyl-N-[(1R,2R)-2-(difluoromethyl)-1-{[(1-methylcyclopropyl)sulfonyl]carbamoyl}cyclopropyl]-12-ethyl-17-methoxy-6,9-dioxo-2,3,4,4a,6,7,8,9,12,13,21,22,23,24,25,25a-hexadecahydro-1H,11H-1,4:10,13-dimethanoquinoxalino[2,3-k][1,10,3,6]benzodioxadiazacyclononadecine-11-carboxamide], the pEC50 [1] was 7.16, the pEC50 [2] was 7.82 and the pEC50 [3] was 7.54. It also gave a pEC50 [4] of 7.29, a pEC50 [5] of 7.66 and a pEC50 [6] of 6.24. For the same compound, the pEC50 [7] was 7.62, the pEC50 [8] was 6.80 and the pEC50 [9] was 7.66. For the same compound, the pEC50 [10] was 7.80.
